Experimental data from BindingDB's records for patent US20240307415 (Jiangsu Simcere Pharmaceutical, 2024).

Target: T1, Glucocorticoid receptor (Homo sapiens, UniProt P04150)
T1 sequence (P04150 whole entry): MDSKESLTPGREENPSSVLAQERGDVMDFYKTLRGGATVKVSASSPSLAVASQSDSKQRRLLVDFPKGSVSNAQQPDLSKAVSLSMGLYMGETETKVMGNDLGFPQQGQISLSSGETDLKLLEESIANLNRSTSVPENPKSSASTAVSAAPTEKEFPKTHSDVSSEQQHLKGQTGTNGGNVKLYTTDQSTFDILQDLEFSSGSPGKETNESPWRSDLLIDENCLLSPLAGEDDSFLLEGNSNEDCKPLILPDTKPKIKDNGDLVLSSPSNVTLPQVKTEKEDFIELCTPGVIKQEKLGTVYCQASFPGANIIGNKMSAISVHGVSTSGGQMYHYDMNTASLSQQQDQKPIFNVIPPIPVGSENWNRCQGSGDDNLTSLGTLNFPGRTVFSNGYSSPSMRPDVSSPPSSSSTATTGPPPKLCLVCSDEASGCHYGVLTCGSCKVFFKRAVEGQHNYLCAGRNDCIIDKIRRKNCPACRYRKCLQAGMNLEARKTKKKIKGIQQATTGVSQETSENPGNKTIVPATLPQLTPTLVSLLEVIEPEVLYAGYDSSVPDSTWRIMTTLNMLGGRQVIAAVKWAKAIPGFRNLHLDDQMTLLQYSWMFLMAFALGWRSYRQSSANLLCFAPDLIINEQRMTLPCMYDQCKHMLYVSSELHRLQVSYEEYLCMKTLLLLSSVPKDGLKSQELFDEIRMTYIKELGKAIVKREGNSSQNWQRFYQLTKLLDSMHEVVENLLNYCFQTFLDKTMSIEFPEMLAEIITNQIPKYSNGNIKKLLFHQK
Assay: Binding Activity of Compound of the Present Invention to Glucocorticoid Receptor GR
Procedure: The binding activity of the compound to GR was determined using the Polarscreen Glucocorticoid Receptor Assay Kit, Red (brand: Thermo, Cat. No: A15898). […] The highest concentration was 100 μM, 8 concentrations in total.

## C[C@]12C=CC(=O)C=C1CC[C@@H]1[C@@H]2[C@@H](O)C[C@@]2(C)[C@H]1C[C@H]1O[C@@H](c3ccc(Cc4ccc5cc[nH]c5c4)cc3)O[C@]12C(=O)CO [US20240307415, Compound 003]
  EC50: 121 nM
